The target in this experiment is PDE10A. Briefly: Phosphodiesterase assay (TR-FRET, LANCE cAMP kit). The following applies: PDE10A (BPS Bioscience) 200 pg/well, biotin-cAMP substrate, 60 min at room temperature. It counts as biochemical. As to the method:
The PDE assay is based on the homogenous time-resolved fluorescence resonance energy transfer (TR-FRET) technology (LANCE® from Perkin Elmer). […] When there is PDE activity, resulting in the degradation of the cyclic nucleotide, the complex is not formed and a decrease in signal is observed.
The phosphodiesterase assay was developed using the LANCE® cAMP kit (PerkinElmer). The assay buffer contained HBSS with 5 mM HEPES, 0.1% BSA, and 1.5 mM MgCl2, pH 7.4. PDE10A (BPS Bioscience) was used at 200 pg/well (with a specific activity of 3200 pmole/min/μg with assay conditions: 10 mM Tris-HCl, pH7.4, 10 mM MgCl2, 1 mM MnCl2, 200 μM cAMP, 2.5 kU 5′ nucleotidase, 37° C., 20 min). […] Chemical compounds were dissolved in DMSO (final concentration 2% (v/v)).
In a 384-well plate, 2 μL inhibitor and 3 μL PDE were added to the well, followed by the addition of 5 μl substrate biotinylated cAMP (1:5). After 60 min incubation at room temperature, 10 μL of assay detection mixture was added to the assay plate. After 1 h at room temperature, the signal was measured on EnVision™ (Perkin Elmer).
Background: In TR-FRET formats the signal depends on donor and acceptor labels being close together.

Where a name gives a salt, the structure may show the parent alone.

As a reminder, the IC50 is the point on the concentration scale where inhibition reaches its midpoint. Read a high IC50 as a need for much substance. The molecule `CCCc1nc(O)c(Cc2ccc3oc4ccccc4c3c2)c2cc(OC)c(OC)cc12` [Compound 7, 4-(Dibenzo[b,d]furan-2-ylmethyl)-6,7-dimethoxy-1-propylisoquinolin-3-ol hydrochloride] gave an IC50 of 0.5 nM. The molecule `CCc1nc(O)c(Cc2cccc(-c3ccccc3)c2)c2cc(OC)c(OC)cc12` [Compound 8, 4-([1,1′-Biphenyl]-3-ylmethyl)-1-ethyl-6,7-dimethoxyisoquinolin-3-ol hydrochloride] had an IC50 of 6710 nM. Molecule `CCc1nc(O)c(Cc2cccc(-c3ccc(OC)cc3)c2)c2cc(OC)c(OC)cc12` [Compound 9, 1-ethyl-6,7-dimethoxy-4-((4′-methoxy-[1,1′-biphenyl]-3-yl)methyl)isoquinolin-3-ol hydrochloride] gave an IC50 of 10600 nM. This IC50 is about 1.6-fold higher than that of the molecule before. Regarding `CCc1nc(O)c(Cc2cccc(-c3cccc(N)c3)c2)c2cc(OC)c(OC)cc12` [Compound 10, 4-((3′-amino-[1,1′-biphenyl]-3-yl)methyl)-1-ethyl-6,7-dimethoxyisoquinolin-3-ol dihydrochloride], the IC50 was found to be 52 nM.

In turn, `COc1cc2c(C)nc(O)c(Cc3cccc(-c4ccccc4)n3)c2cc1OC` [Compound 12, 6,7-dimethoxy-1-methyl-4-((6-phenylpyridin-2-yl)methyl)isoquinolin-3-ol dihydrochloride] gave an IC50 of 94 nM. For `COc1cc2c(C)nc(O)c(Cc3cccc(-c4ccncc4)n3)c2cc1OC` [Compound 14, 4-([2,4′-bipyridin]-6-ylmethyl)-6,7-dimethoxy-1-methylisoquinolin-3-ol trihydrochloride] the value was 100 nM.

The molecule `COc1ccc(-c2cncc(Cc3c(O)nc(C)c4cc(OC)c(OC)cc34)c2)cc1` [Compound 16, 6,7-dimethoxy-4-((5-(4-methoxyphenyl)pyridin-3-yl)methyl)-1-methylisoquinolin-3-ol dihydrochloride] displayed an IC50 of 69 nM. This IC50 and that of the molecule before are within 1.5-fold of each other. To `COc1cc2c(C)nc(O)c(Cc3ccc4ccccc4c3)c2cc1OC` [Compound 17, 6,7-dimethoxy-1-methyl-4-(naphthalen-2-ylmethyl)isoquinolin-3-ol hydrochloride] belongs 14 nM; to `COc1cc2c(C)nc(OC)c(Cc3ccc4ccccc4c3)c2cc1OC` [Compound 18, 3,6,7-trimethoxy-1-methyl-4-(naphthalen-2-ylmethyl)isoquinoline hydrochloride], 1410 nM. For the molecule `CCCc1nc(O)c(Cc2ccc3ccccc3c2)c2cc(OC)c(OC)cc12` [Compound 20, 6,7-dimethoxy-4-(naphthalen-2-ylmethyl)-1-propylisoquinolin-3-ol hydrochloride], the IC50 stood at 34 nM. To `COc1cc2c(C)nc(O)c(Cc3ccc4ccccc4n3)c2cc1OC` [Compound 23, 6,7-dimethoxy-1-methyl-4-(quinolin-2-ylmethyl)isoquinolin-3-ol dihydrochloride] belongs 130 nM; to `COc1cc2c(C)nc(O)c(Cc3ccc4ncccc4c3)c2cc1OC` [Compound 24, 6,7-dimethoxy-1-methyl-4-(quinolin-6-ylmethyl)isoquinolin-3-ol dihydrochloride], 86 nM; to `COc1cc2c(C)nc(O)c(Cc3cnc4ccccc4c3)c2cc1OC` [Compound 26, 6,7-Dimethoxy-1-methyl-4-(quinolin-3-ylmethyl)isoquinolin-3-ol dihydrochloride], 24 nM. For `COc1cc2c(C)nc(O)c(Cc3cnc4cccc(OC)c4c3)c2cc1OC` [Compound 27, 6,7-Dimethoxy-4-((5-methoxyquinolin-3-yl)methyl)-1-methylisoquinolin-3-ol dihydrochloride] the value was 17 nM; for `CCOc1cccc2ncc(Cc3c(O)nc(C)c4cc(OC)c(OC)cc34)cc12` [Compound 28, 4-((5-Ethoxyquinolin-3-yl)methyl)-6,7-dimethoxy-1-methylisoquinolin-3-ol dihydrochloride], 6 nM; for `CCCc1nc(O)c(Cc2cnc3cc(OC)ccc3c2)c2cc(OC)c(OC)cc12` [Compound 32, 6,7-dimethoxy-4-((7-methoxyquinolin-3-yl)methyl)-1-propylisoquinolin-3-ol dihydrochloride], 4 nM. For `CNc1nc2ccc(C)cc2cc1Cc1c(O)nc(C)c2cc(OC)c(OC)cc12` [Compound 33, 6,7-Dimethoxy-1-methyl-4-((6-methyl-2-(methylamino)quinolin-3-yl)methyl)isoquinolin-3-ol dihydrochloride] the value was 13 nM. Molecule `CCCc1nc(O)c(Cc2cc3cc(C)ccc3nc2NC)c2cc(OC)c(OC)cc12` [Compound 34, 6,7-dimethoxy-4-((6-methyl-2-(methylamino)quinolin-3-yl)methyl)-1-propylisoquinolin-3-ol dihydrochloride] gave an IC50 of 1.9 nM. For `CNc1nc2ccc(OC)cc2cc1Cc1c(O)nc(C)c2cc(OC)c(OC)cc12` [Compound 37, 6,7-Dimethoxy-4-((6-methoxy-2-(methylamino)quinolin-3-yl)methyl)-1-methyl-isoquinolin-3-ol dihydrochloride] the value was 6 nM. For `CCc1nc(O)c(Cc2cc3cc(OC)ccc3nc2NC)c2cc(OC)c(OC)cc12` [Compound 39, 1-ethyl-6,7-dimethoxy-4-((6-methoxy-2-(methylamino)quinolin-3-yl)methyl)isoquinolin-3-ol dihydrochloride] the value was 1.6 nM; for `CCNc1nc2ccc(OC)cc2cc1Cc1c(O)nc(CC)c2cc(OC)c(OC)cc12` [Compound 40, 1-Ethyl-6,7-dimethoxy-4-((6-methoxy-2-(ethylamino)quinolin-3-yl)methyl)isoquinolin-3-ol dihydrochloride], 0.4 nM. To `CCNc1nc2ccc(OCC)cc2cc1Cc1c(O)nc(CC)c2cc(OC)c(OC)cc12` [Compound 41, 4-((6-Ethoxy-2-(ethylamino)quinolin-3-yl)methyl)-1-ethyl-6,7-dimethoxyisoquinolin-3-ol dihydrochloride] belongs 5 nM; to `CCCNc1nc2ccc(OC)cc2cc1Cc1c(O)nc(CC)c2cc(OC)c(OC)cc12` [Compound 42, 1-ethyl-6,7-dimethoxy-4-((6-methoxy-2-(propylamino)quinolin-3-yl)methyl)isoquinolin-3-ol dihydrochloride], 0.5 nM. Molecule `CCc1nc(O)c(Cc2cc3cc(OC)ccc3nc2NCc2ccccc2)c2cc(OC)c(OC)cc12` [Compound 44, 4-((2-(Benzylamino)-6-methoxyquinolin-3-yl)methyl)-1-ethyl-6,7-dimethoxyisoquinolin-3-ol dihydrochloride] had an IC50 of 8 nM.

The molecule `CCNc1nc2ccc(OCC)cc2cc1Cc1c(O)nc(C(C)C)c2cc(OC)c(OC)cc12` [Compound 46, 4-((6-Ethoxy-2-(ethylamino)quinolin-3-yl)methyl)-1-isopropyl-6,7-dimethoxyisoquinolin-3-ol dihydrochloride] showed a half-inhibitory concentration (IC50) of 29 nM. `CCCc1nc(O)c(Cc2cc3cc(OC)ccc3nc2NC(C)C)c2cc(OC)c(OC)cc12` [Compound 53, 4-((2-(Isopropylamino)-6-methoxyquinolin-3-yl)methyl)-6,7-dimethoxy-1-propylisoquinolin-3-ol dihydrochloride] registered a half-inhibitory concentration (IC50) of 0.8 nM. Against the preceding molecule, the IC50 is about 36-fold lower. Molecule `CCCc1nc(O)c(Cc2cc3cc(OC)ccc3nc2NCC(F)(F)F)c2cc(OC)c(OC)cc12` [Compound 54, 6,7-dimethoxy-4-((6-methoxy-2-((2,2,2-trifluoroethyl)amino)quinolin-3-yl)methyl)-1-propylisoquinolin-3-ol dihydrochloride] showed an IC50 of 23 nM. For `CCCc1nc(O)c(Cc2cc3cc(OC)ccc3nc2NCCNC(C)=O)c2cc(OC)c(OC)cc12` [Compound 55, N-(2-((3-((3-hydroxy-6,7-dimethoxy-1-propylisoquinolin-4-yl)methyl)-6-methoxyquinolin-2-yl)amino)ethyl)acetamide dihydrochloride] the value was 4.4 nM. For the molecule `CCNc1nc2ccc(OC)cc2cc1Cc1c(OC(C)=O)nc(CNC(C)=O)c2cc(OC)c(OC)cc12` [Compound 56, 1-(Acetamidomethyl)-4-((2-(ethylamino)-6-methoxyquinolin-3-yl)methyl)-6,7-dimethoxyisoquinolin-3-yl acetate], half-maximal inhibition (IC50) was put at 175 nM.

`CCNc1nc2ccc(OC)cc2cc1Cc1c(O)nc(CNC(C)=O)c2cc(OC)c(OC)cc12` [Compound 57, N-((4-((2-(ethylamino)-6-methoxyquinolin-3-yl)methyl)-3-hydroxy-6,7-dimethoxyisoquinolin-1-yl)methyl)acetamide dihydrochloride] yielded a concentration for half-maximal inhibition (IC50) of 47 nM. To `CNc1nc2cc(O)c(O)cc2cc1Cc1c(O)nc(C)c2cc(OC)c(OC)cc12` [Compound 59, 3-((3-hydroxy-6,7-dimethoxy-1-methylisoquinolin-4-yl)methyl)-2-(methylamino)quinoline-6,7-diol dihydrochloride] belongs 27 nM; to `CNc1nc2cc3c(cc2cc1Cc1c(O)nc(C)c2cc(OC)c(OC)cc12)OCO3` [Compound 60, 6,7-dimethoxy-1-methyl-4-((6-(methylamino)-[1,3]dioxolo[4,5-g]quinolin-7-yl)methyl)isoquinolin-3-ol dihydrochloride], 2.7 nM. For `CCc1nc(O)c(Cc2cc3cc4c(cc3nc2NC)OCO4)c2cc(OC)c(OC)cc12` [Compound 61, 1-ethyl-6,7-dimethoxy-4-((6-(methylamino)-[1,3]-dioxolo[4,5-g]quinolin-7-yl)methyl)isoquinolin-3-ol dihydrochloride] the value was 2.2 nM.

Source of the values: patent US8772316B2, “Substituted 6,7-dialkoxy-3-isoquinolinol derivatives as inhibitors of phosphodiesterase 10 (PDE10A)” (Allergan, Inc., priority 2011, dated 2014).
